Test results reported in patent US10004716B2, “Therapeutic/ preventive agent containing coumarin derivative as active ingredient” (NIPPON ZOKI PHARMACEUTICAL CO., LTD., priority 2014, dated 2018).

Experiments:
[1] = test system: NF-κB; assay: Suppressive action to NF-κB activation (luciferase reporter, HEK293T cells, TNF-α); assay type: cell-based, human; conditions: HEK293T cells with NF-κB reporter; test substance 25 μml/mL 1 hour, then TNF-α 10 ng/mL 5 hours; stimulated TNF-α = 100
Protocol: A preparation solution containing pGL4.32 [luc2P/NF-κB-RE/Hygrol] (Promega) which is an NF-κB reporter vector, pGL4.74 [hRluc/TK] (Promega) which is a control vector and Lipofectamine LTX (Life Technologies) which is a gene transfer agent was added to human embryo kidney cells (HEK293T cells) sown onto a […] whereupon there were prepared the cells which transiently express a reporter protein.
After 24 hours from the gene transfer, transient expression cells were peeled off by treating with trypsin, sown on a poly-lysine coated white 96-well plate and incubated for one night. The test substance was added to as to make its final concentration 25 μml/mL and, after pre-incubating for 1 hour, TNF-α was added thereto so as to make its final concentration 10 ng/mL followed by incubating for 5 hours more. The cells were dissolved and the activities of a firefly luciferase and a renilla luciferase were measured. Rate of the luminescent intensity by addition of each drug to the luminescent intensity by stimulation with TNF-α were calculated.

[2] = test system: fibronectin gene expression; assay: Evaluation II: TGF-β-induced gene expression of fibrosis-related factors in NHLF cells: fibronectin; assay type: cell-based, human; conditions: 30 μM test substance, 200 μg/mL pirfenidone, 30 μM DEX, 1.0 μM TPCA-1 or 10 μM FP 2 hours, then TGF-β 0.5 ng/mL 4 hours, n = 4
Protocol: (§1) NHLF cells were sown so as to make their amount 5×10^4 cells/well to each well of a 12-well plate and incubated to an extent of 80% confluent in a medium where fibroblast growth medium 2 supplement mix (FGM-2 SingleQuots, Lonza) was added to a fibroblast basal medium (FBM, Lonza). After that, incubation was conducted for 2 hours in a DMEM medium containing 30 μM of a test substance, 200 μg/mL of pirfenidone, 30 μM of dexamethasone (DEX), 1.0 μM of TPCA-1 or 10 μM of fluticasone propionate (FP) and, after TGF-β was added thereto so as to make its final concentration 0.5 ng/mL, incubation was carried out for 4 hours more.
(§2) With regard to the extraction of RNA from NHLF cells, the synthesis of cDNA from RNA and the action of the test substance to gene expression of fibrosis-related factors [CFGF, TGF-β1, fibronectin and Col 1], the tests were carried out in the same manners as in (2) and (3) of the above Test Example 3.

[3] = test system: CTGF gene expression; assay: Evaluation II: TGF-β-induced gene expression of fibrosis-related factors in NHLF cells: CTGF; assay type: cell-based, human; conditions: 30 μM test substance, 200 μg/mL pirfenidone, 30 μM DEX, 1.0 μM TPCA-1 or 10 μM FP 2 hours, then TGF-β 0.5 ng/mL 4 hours, n = 4
Protocol: as §1, §2

[4] = test system: Col 1 gene expression; assay: Evaluation II: TGF-β-induced gene expression of fibrosis-related factors in NHLF cells: Col 1; assay type: cell-based, human; conditions: 30 μM test substance, 200 μg/mL pirfenidone, 30 μM DEX, 1.0 μM TPCA-1 or 10 μM FP 2 hours, then TGF-β 0.5 ng/mL 4 hours, n = 4
Protocol: as §1, §2

[5] = test system: TGF-β1 gene expression; assay: Evaluation II: TGF-β-induced gene expression of fibrosis-related factors in NHLF cells: TGF-β1; assay type: cell-based, human; conditions: 30 μM test substance, 200 μg/mL pirfenidone, 30 μM DEX, 1.0 μM TPCA-1 or 10 μM FP 2 hours, then TGF-β 0.5 ng/mL 4 hours, n = 4
Protocol: as §1, §2

[6] = test system: mice where pulmonary fibrosis was induced by bleomycin; assay: Lung wet weight increase of mice where pulmonary fibrosis was induced by bleomycin; assay type: in vivo; conditions: ICR male mice, bleomycin 2 mg/kg i.v. 5 days; test substance 50 mg/kg or pirfenidone 200 mg/kg per os twice daily for 2 weeks; normal control 205, diseased control 303
Protocol: Bleomycin (2 mg/kg) was repeatedly injected intravenously for 5 days to ICR male mice. The mice were organized into 4 groups of normal control group, diseased control group, test substance-administered group and pirfenidone-administered group.
A test substance was suspended in 0.5 w/v % carboxymethyl cellulose sodium (CMC) and 50 mg/kg thereof was repeatedly administered per os with stirring twice daily for 2 weeks using an oral sonde for rats. Pirfenidone was suspended in 0.5 w/v % CMC and 200 mg/kg thereof was repeatedly administered per os with stirring twice daily for 2 weeks using an oral sonde for rats. To the normal control group and the diseased control group, 0.5 w/v % CMC was repeatedly administered per os according to the same administration schedule. After finishing the administration period, both lungs were excised from the mice and their wet weight was measured.

Compound | Luminescent Intensity to Stimulated TNF-α (%) [1] [%] | Copy Numbers per 10000 Copies of GAPDH Fibronectin [2] | Copy Numbers per 10000 Copies of GAPDH CTGF [3] | Copy Numbers per 10000 Copies of GAPDH Col 1 [4] | Copy Numbers per 10000 Copies of GAPDH TGF-β1 [5] | Wet Lung Weight [6] [mg]
O=c1oc2c(OS(=O)(=O)c3cccc([N+](=O)[O-])c3)cccc2cc1NS(=O)(=O)c1cccc([N+](=O)[O-])c1 [Compound 17, 3-[(3-Nitrophenyl)sulfonylamino]-2-oxochromen-8-yl 3-nitrobenzenesulfonate] | 0.1 | – | – | – | – | –
NC(=O)Nc1sc(-c2ccc(F)cc2)cc1C(N)=O [TPCA-1] | – | 3757.9 copies per 10000 copies of GAP | 461.2 copies per 10000 copies of GAP | 840.4 copies per 10000 copies of GAP | 886.9 copies per 10000 copies of GAP | –
Cc1ccc(=O)n(-c2ccccc2)c1 [Pirfenidone] | – | 1689.7 copies per 10000 copies of GAP | 180.6 copies per 10000 copies of GAP | 1027.6 copies per 10000 copies of GAP | 962.5 copies per 10000 copies of GAP | 242
CCC(=O)O[C@]1(C(=O)SCF)[C@H](C)C[C@H]2[C@@H]3C[C@H](F)C4=CC(=O)C=C[C@]4(C)[C@@]3(F)[C@@H](O)C[C@@]21C [FP, fluticasone propionate] | – | 3603.2 copies per 10000 copies of GAP | 1166.8 copies per 10000 copies of GAP | 593.3 copies per 10000 copies of GAP | 450.6 copies per 10000 copies of GAP | –
C[C@@H]1C[C@H]2[C@@H]3CCC4=CC(=O)C=C[C@]4(C)[C@@]3(F)[C@@H](O)C[C@]2(C)[C@@]1(O)C(=O)CO [DEX, dexamethasone] | – | 4314.6 copies per 10000 copies of GAP | 1010.1 copies per 10000 copies of GAP | 610.7 copies per 10000 copies of GAP | 546.9 copies per 10000 copies of GAP | –
